Experiments:
[1] = cited from earlier work; for pKsp: comparison values
[2] = Stability of curcumin, free versus encapsulated (absorbance at 420 nm); assay type: physicochemical
Protocol: To prepare a stock solution of curcumin, 100 mg of commercial turmeric powder was suspended in 10 mL of ethanol and vortex and kept for inversion for 2 hours. The tube was closed and covered with aluminum foil to prevent the degradation of curcumin by oxidation and UV light. Next, the suspension was centrifuged at 13200 rpm for 30 minutes to separate the insoluble particles form the ethanol solubilized curcumin. The supernatant was carefully collected and this was used as a stock solution of curcumin in ethanol. The stock solution was adjusted with ethanol so that a 100 x dilution of this stock solution in MQ-Water gave an absorbance of 2±0.1 at 420 nm, when measured immediately after the dilution. If stored at ambient conditions, the absorbance decreases rapidly due to degradation of curcumin by oxidation and light.
To load curcumin 10 μL of curcumin stock solution was added to 990 μL of buffer (±lactase) which was used for encapsulation. The loaded curcumin was not removed by repeated washing and this indicated good encapsulation and stabilization. The microcapsule suspension with encapsulated curcumin appeared yellow.

For `[Ca+2].[OH-].[OH-]` [calcium hydroxide], the pKsp [1] is given as 5.3.
For `COc1cc(/C=C/C(=O)CC(=O)/C=C/c2ccc(O)c(OC)c2)ccc1O` [curcumin], the increase of half-life ([2]; encapsulated in CaP particles stabilized by oligo-CGMP or in liposomes, versus storage at ambient conditions) was 5-10 times and the “stability as indicated by half and quarter-life” value ([2]; encapsulated in oligo-CGMP micelles) was “significantly increased”.
For `O=P([O-])([O-])[O-].O=P([O-])([O-])[O-].[Ca+2].[Ca+2].[Ca+2]` [CaP, Ca3(PO4)2], the Ksp ([1]; 25° C.) is listed as 2.07×10^−33.
For `O=C([O-])[O-].[Ca+2]` [calcium carbonate], the pKsp [1] is given as 8.47.
